Where two headings read alike, the source gives them in different places. Values belong to the molecule of their own block, whether it stands above or below them.
What was measured:
[1] = LC/MS characterization of tigecycline related compounds in human serum, urine and feces; type: in vivo; settings: in vivo
Text: Three HPLC conditions were used during LC/MS analysis in this study. LC/MS Condition 1 was used for the majority of sample analyses for metabolite characterization and to isolate metabolite M3a from urine. LC/MS Condition 2 was used on selected samples to increase the retention time of glucuronide metabolites and for a co-chromatography experiment to confirm the identity of metabolites M8 and M9. LC/MS Condition 3 was used to analyze the polar metabolite M3a isolated from human urine.
The UV detector was set to monitor 340-360 nm. […] The flow rate was 0.2 mL/min. […] The linear mobile phase gradient is shown below.
Separations were accomplished on a Phenomenex Luna C18(2) column (250×2.0 mm, 5 μm) with a Uniguard C18 guard column (10×2 mm) (ThermoHypersil-Keystone). The flow rate was 0.2 mL/min. […] Mobile phase A was 0.02% trifluoroacetic acid in water (v/v) and mobile phase B was 0.02% trifluoroacetic acid in acetonitrile (v/v). The linear mobile phase gradient is shown below.
A Micromass Quattro Ultima triple quadrupole mass spectrometer (Waters Corp.) was operated in the positive ionization mode. LC/MS analysis with electrospray ionization (ESI) was conducted using a Z-spray interface. ESI-MS analysis of individual fractions from selected samples was conducted by direct infusion into a nanospray interface. Settings for the mass spectrometer are listed below.
Urine and feces samples were analyzed for tigecycline metabolites by LC/MS/MS analysis for precursors of product ions characteristic of tigecycline. Additionally, potential metabolites of tigecycline were searched for in the LC/MS data based upon results from previous studies in animals and humans.
Serum extracts were analyzed for tigecycline and selected metabolites by LC/MS/MS in the selected reaction monitoring (SRM) mode (LC/SRM) to reduce interference from endogenous components. […] The following tigecycline related components were monitored.

[2] = LC/MS detection of tigecycline metabolites in CD-1 mouse serum and urine after intravenous tigecycline; settings: mouse, in vivo, iv, 5 mg/kg
Experimental: Fifteen male CD-1 mice, with an average weight of 31.3 g at the time of dosing, were used. Animals were given food and water ad libitum. Mice in the 0.5 and 2 hour blood collection groups were housed in standard cages, while those in the 4 hour blood collection group were housed in metabolism cages for the collection of urine. Mice were dosed by the Bioresources Department at Wyeth Research, Collegeville, Pa.
For mice and rabbits, the intravenous dosing solutions was prepared by dissolving 50 mg of tigecycline in 5.0 mL of 0.9% sterile saline solution to make a working stock solution. The working stock solution was diluted with 0.9% sterile saline solution to 0.5 mg/mL for mice and 4 mg/mL for rabbits. The mouse dose (5 mg/kg, 10 mL/kg) was administered as a bolus injection via the tail vein. The rabbit dose (4 mg/kg, 1 mL/kg) was administered as a bolus injection via the marginal vein of the ear.
For mice (n=5/time point), blood (approximately 0.7 mL) was collected by cardiac puncture at 0.5, 2 and 4 hours following administration of tigecycline. For rabbits, blood (approximately 7 mL) was collected via the ear vein at 0.5, 2 and 6 hours following the tigecycline dose. Serum was separated following clot formation at room temperature and centrifugation for 15 minutes at 4° C. and 3000 rpm. The serum was transferred to a fresh tube and was stored at approximately −70° C. until analysis as described below under “Serum Sample Preparation for LC/MS Analysis. In addition, urine was collected from mice in the 4 hour blood collection group and was stored at approximately −70° C. until analysis, as described below under “Urine Sample Preparation for LC/MS Analysis.”
Mouse urine was thawed and an aliquot (1 mL) transferred to a fresh tube. The sample was centrifuged at 14,000 rpm and room temperature for 10 minutes using a Model 5415C Eppendorf centrifuge (Brinkmann Instruments, Westbury, N.Y.) to remove any particulates. The sample was then transferred to a fresh tube and was analyzed by LC/MS, as described below under “Liquid Chromatography/Mass Spectrometry Analysis.”.
Mouse and rabbit serum samples were pooled at each collection time and analyzed for tigecycline, its epimer, tigecycline glucuronide (M7 and its epimer M6), 9-aminominocycline (M3) and N-acetyl-9-aminominocycline (M9 and its epimer M8). Aliquots of serum (500 μL) were transferred to new tubes and deuterated tigecycline (30 ng/mL final concentration) was added as an internal standard (quantitative analysis only). EDTA (40 μL of 0.5 M EDTA) was added to each sample and the samples vortex mixed. Acetonitrile (500 μL) was added to each sample, samples were vortex mixed and denatured protein separated by centrifugation at 14,000 rpm and room temperature for 10 minutes using a Model 5415C Eppendorf centrifuge (Brinkmann Instruments). The supernatant was transferred to a fresh tube and the solvent evaporated under a stream of nitrogen using a Turbovap Model LV evaporator (Caliper Life Sciences, Hopkinton, Mass.).
The HPLC system used for mass spectrometric analysis was a Waters Alliance Model 2695 HPLC system (Waters Corp., Milford, Mass.). It was equipped with a built-in autosampler and a Model 996 diode array UV detector. The UV detector was set to monitor 210-400 nm. Separations for metabolite characterization were accomplished on a Phenomenex Luna C18(2) column (150×2.1 mm, 5 μm) (Phenomenex, Torrance, Calif.) equipped with a Keystone Uniguard C18 guard column (10×2.1 mm) (Thermo Electron Corp., Bellefonte, Pa.). The column temperature was 25° C. The flow rate was 0.2 mL/min. Mobile phase A was 10 mM ammonium acetate in water and mobile phase B was acetonitrile.

[3] = Tigecycline metabolites identified in CD-1 mouse serum and urine and rabbit serum samples (LC/MS); type: in vivo; settings: in vivo, iv
Experimental: The column temperature was 25° C. The flow rate was 0.2 mL/min. […] Gradient 1 was used for metabolite identification (qualitative analysis).
LC/MS analysis was conducted on extracts of serum and from CD-1 mice and rabbits, and on urine from CD-1 mice. The mass spectral data for tigecycline and its metabolites are discussed below.

[4] = dogs, cited from earlier work
[5] = Stability of [14C]tigecycline during extraction from control human fecal homogenates; type: in vitro ADME
Text: Similar results were observed following the extraction of [^14C]tigecycline from control fecal homogenates. In these samples, [^14C]tigecycline accounted for 94% of the radioactivity prior to extraction and 68% following the extraction. There was a corresponding increase in the epimer of tigecycline, which represented 4% of the radioactivity prior to extraction and 23% following the extraction. […] Other minor products represented less than 1% of the radioactivity prior to the extraction and 4% following the extraction.
The stability of [^14C]tigecycline during the extraction process was determined in control human fecal homogenates spiked with [^14C]tigecycline at 5 μg/g of homogenate. […] Samples were extracted and analyzed by HPLC with radioactivity flow detection.

[6] = Stability of [14C]tigecycline in control human serum incubated at 37° C.; settings: for percent radioactivity in spiked control serum: 37° C., 3 μg/mL
Experimental: The stability of [^14C]tigecycline was examined in control serum incubated at 37° C. for up to 24 hours.
The stability of [^14C]tigecycline was determined in control human serum spiked with [^14C]tigecycline at 3 μg/mL and incubated at 37° C. […] Aliquots (500 μL) were removed at 0, 1, 4, 8 and 24 hours and placed into fresh vials. EDTA (40 μL of 0.5 M) was added and samples centrifuged at 14,000 rpm and room temperature for 10 min (Eppendorf centrifuge, Model 5415C). Supernatants were transferred to HPLC vials and analyzed by HPLC with radioactivity flow detection.

[7] = rats, cited from earlier work
[8] = Stability of [14C]tigecycline during extraction from control human serum; type: in vitro ADME
Text: In serum samples, [^14C]tigecycline accounted for 94% of the radioactivity prior to spiking and extracting the samples. After the extraction process, the amount of [^14C]tigecycline had decreased 24% to 70% of the radioactivity. There was a corresponding increase in other radioactive components, mainly the epimer of tigecycline, which increased from 4% prior to extraction to 22% following the extraction. Other minor products, which included M3a, increased from 2% prior to extraction to 8% following the extraction.
Additional serum samples were prepared as descried above and extracted. This was done to determine the effects, if any, of the extraction process on the stability of [^14C]tigecycline. These samples were analyzed by HPLC with radioactivity flow detection, as described in example 6.

[9] = Stability of [14C]tigecycline in control human urine incubated at 37° C.; settings: for percent of radioactivity in spiked control urine: 37° C., 5 μg/mL
Experimental: The stability of [^14C]tigecycline was determined in control human urine spiked with [^14C]tigecycline at 5 μg/mL and incubated at 37° C. […] Aliquots (500 μL) were removed at 0, 1, 4, 8 and 24 hours and placed into fresh vials. These urine samples were processed and analyzed as described for serum in control example 2.

[10] = Mass balance: percent of [14C]tigecycline dose excreted in human urine and feces
Experimental: The concentration of tigecycline-related components in serum, urine and feces was calculated based on the total radioactivity concentrations reported elsewhere. These concentrations were converted to ng-tigecycline equivalents using the specific activity of the dose (1.00 μCi/mg). Using this value, the concentrations of the specific components were then estimated based on the distribution of radioactivity in the radiochromatograms.
(§1) An open-label, inpatient, multiple-dose tigecycline, single-dose [^14C]tigecycline metabolic disposition and mass balance study was performed in six healthy male volunteers. The clinical protocol called for twelve subjects. Of these twelve, six received the radioactive dose (subjects 1, 4, 5, 6, 7, and 8 with subject 8 later dropping out of the study.) Eligible subjects were selected based on inclusion/exclusion criteria, medical history, physical examination and additional procedures outlined in the study protocol. Each subject received a 100 mg loading dose on the morning of Day 1, followed by a 50 mg maintenance dose every 12 hours for an additional 5 doses. On the morning of study Day 4, six subjects received a single 50 mg dose of [^14C]tigecycline (50 μCi). Each tigecycline dose was administered via a 30-minute intravenous infusion.
(§2) Serum samples were collected for metabolite profiling prior to tigecycline dosing and 1, 4, 8, 24 and 48 hours following the [^14C]-labeled dose. For metabolite profiling, urine samples were collected at 0-4, 4-8, 8-24 and 24-48 hours and fecal samples were collected up to 48 hours following the [^14C]-labeled dose. Serum and urine samples, and fecal homogenates were shipped on dry ice to the Biotransformation Division of Drug Safety and Metabolism, Wyeth Research, Collegeville, Pa. The details of the sample collection and sample storage are described in the mass balance portion of the study. The 24-48 hour urine and fecal samples for subject #6 were incomplete since the subject withdrew from the study. While samples from this subject were used for metabolite profiling, the samples were not included in the mass balance calculations.

[11] = in vivo
Experimental: as §1, §2
Urine samples for metabolite profiling were extracted, as discussed below, using a method previously developed and used for rat and dog urine samples. Urine samples that had been collected at various intervals up to 48 hours following the dose of [^14C]tigecycline were thawed on ice prior to extraction. Aliquots (1 mL) of the individual urine samples were transferred to clean tubes and 0.2 M EDTA, for a final concentration of 40 mM EDTA, was added. […] Samples were mixed, centrifuged and the supernatants analyzed for metabolites by HPLC radiochromatography with selected samples also analyzed by LC/MS.
HPLC analyses were performed using a Waters 2695 Alliance Separation Module (Waters Corp., Milford, Mass.), a Waters Model 2487 dual wavelength UV absorbance detector, set to monitor 350 nm, and was in-line with a Gilson 215 liquid handler (Gilson, Middleton, Wis.) equipped to collect fractions at 20 second intervals. Fractions were collected into 96-well deep well Luma plates and analyzed using TopCount NXT. The autosampler temperature was set to 4° C. […]

relative amount in human serum based on LC/MS data [1]: minor metabolites
relative amount in human urine based on LC/MS data [1]: minor metabolites
Molecule: CC(=O)Nc1cc(N(C)C)c2c(c1O)C(=O)C1=C(O)[C@]3(O)C(=O)C(C(N)=O)=C(O)[C@H](N(C)C)[C@@H]3C[C@@H]1C2 (single isomer, unassigned) [Metabolite M8, epimer of N-acetyl-9-aminominocycline]

observed in mouse urine by LC/MS [2]: detected
Species and matrix in which identified [3]: R-S, M-S, M-U
relative amount in human serum based on LC/MS data [1]: minor metabolites
relative amount in human urine based on LC/MS data [1]: minor metabolites
Molecule: CN(C)c1cc(N)c(O)c2c1C[C@H]1C[C@H]3[C@H](N(C)C)C(=O)C(C(N)=O)=C(O)[C@@]3(O)C(=O)C1=C2O [Metabolite M3, 9-aminominocycline]

Molecule: CN(C)c1cc(N[14C](=O)CNC(C)(C)C)c(O)c2c1CC1CC3C(N(C)C)C(O)=C(C(N)=O)C(=O)C3(O)C(O)=C1C2=O (centres unmarked) [[^14C]tigecycline]
single intravenous [14C]tigecycline dose recovered ([4]; including cage rinse): approximately 89%
dose recovered in feces [4]: 47%
dose recovered in urine [4]: 36%
percent of the radioactivity, control fecal homogenates ([5]; following the extraction): 68%
percent of the radioactivity, control fecal homogenates ([5]; prior to extraction, 5 μg/g of homogenate): 94%
percent radioactivity in spiked control serum ([6]; 0 hours): 90%
percent radioactivity in spiked control serum ([6]; 24 hours): 81%
decrease in percent radioactivity in spiked control serum ([6]; over 24 hours at 37° C.): approximately 9%
single intravenous [14C]tigecycline dose recovered ([7]; including cage rinse): approximately 89%
dose recovered in feces [7]: 53%
dose recovered in urine [7]: 34%
percent of the radioactivity, control serum ([8]; after the extraction process): 70%
decrease in percent of the radioactivity, control serum ([8]; during the extraction process): 24%
percent of the radioactivity, control serum ([8]; prior to spiking and extracting): 94%
percent of radioactivity in spiked control urine ([9]; 0 hours): 92%
decrease in percent of radioactivity in spiked control urine ([9]; 0 to 24 hours at 37° C.): 18%
percent of radioactivity in spiked control urine ([9]; 24 hours): 74%
radioactivity excreted in feces (mean) ([10]; complete collection, n=3): 58.6±4.4%
radioactivity excreted in urine (mean) ([10]; complete collection, n=3): 33.2±1.9%
[14C]tigecycline dose recovered ([10]; first 48 hours, urine + feces): Approximately 50%
Mean total recovery of radioactivity in human excreta ([10]; urine + feces, n=3): 91.8%

percent of the radioactivity in urine [11]: less than 1%
relative amount in human urine based on LC/MS data [1]: trace amounts
Molecule: Hydroxy Tigecycline [Metabolite M1]

From patent US7534766B2, “Glucuronide metabolites and epimers thereof of tigecycline” (Wyeth, priority 2004, dated 2009)
